The text below walks through data of patent US20250059213A1, “LONP1 INHIBITORS, USES AND METHODS” (Pretzel Therapeutics, Inc., priority 2021, published 2025).

Structures are written as SMILES.

LONP1 (NM_004793.4), sequence (P36776 68-959): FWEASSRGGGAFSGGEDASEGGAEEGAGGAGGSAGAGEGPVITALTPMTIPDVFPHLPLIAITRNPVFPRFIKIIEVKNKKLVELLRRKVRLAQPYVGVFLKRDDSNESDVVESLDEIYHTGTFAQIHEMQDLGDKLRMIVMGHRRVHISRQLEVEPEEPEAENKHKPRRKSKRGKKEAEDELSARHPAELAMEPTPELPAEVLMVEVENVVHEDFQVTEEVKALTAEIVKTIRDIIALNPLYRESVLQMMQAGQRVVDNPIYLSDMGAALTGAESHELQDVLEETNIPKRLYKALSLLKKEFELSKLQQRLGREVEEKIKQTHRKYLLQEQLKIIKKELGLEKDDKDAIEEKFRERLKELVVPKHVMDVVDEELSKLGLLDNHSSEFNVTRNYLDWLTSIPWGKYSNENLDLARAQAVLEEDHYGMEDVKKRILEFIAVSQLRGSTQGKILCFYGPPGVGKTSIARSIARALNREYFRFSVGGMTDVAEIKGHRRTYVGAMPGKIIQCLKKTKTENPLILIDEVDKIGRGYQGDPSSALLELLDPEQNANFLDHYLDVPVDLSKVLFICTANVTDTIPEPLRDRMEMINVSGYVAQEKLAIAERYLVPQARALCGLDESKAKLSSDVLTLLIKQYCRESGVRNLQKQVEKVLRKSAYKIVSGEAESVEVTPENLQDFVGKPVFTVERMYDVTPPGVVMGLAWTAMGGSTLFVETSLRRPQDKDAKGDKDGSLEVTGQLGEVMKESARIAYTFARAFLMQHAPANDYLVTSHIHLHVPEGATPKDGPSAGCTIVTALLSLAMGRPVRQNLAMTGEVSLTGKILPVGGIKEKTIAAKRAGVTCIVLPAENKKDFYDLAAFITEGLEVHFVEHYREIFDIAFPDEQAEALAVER

The assay deals with LONP1 (NM_004793.4) (Homo sapiens (Human), UniProt P36776). The experiment in a line: LONP1 FRET-based protease activity assay (fluorogenic peptide substrate). It is filed as biochemical. As to conditions: LONP1 15 nM, substrate 3 μM, 15 min preincubation, 1 hour at 37° C.; average of a minimum of two repeats. On the procedure:
Inhibition of LONP1 protease activity by an inhibitor compound of the disclosure elicits a decrease in the fluorescent signal.
The LONP1-containing mix (10 μL) was incubated with the test compound for 15 min at 37° C. before adding the peptide-containing mix (5 μL). Solutions were dispensed using a small cassette-Multidrop Combi (Thermo Scientific).
Each value is based on an average of a minimum of two repeats.
As usually defined, the IC50 is the point on the concentration scale where inhibition reaches its midpoint. Lower therefore signals greater potency in that assay. The compound `CCC[C@H](NC(=O)[C@@H](CC(=O)N1CCOCC1)NC(=O)c1cnccn1)B(O)O` [Compound 31, ((R)-1-((R)-4-morpholino-4-oxo-2-(pyrazine-2-carboxamido)butanamido)butyl)boronic acid] gave a half-maximal inhibitory concentration (IC50) of under 50 nM.
Next, `O=C(N[C@H](CCC(=O)N1CCOCC1)C(=O)N[C@@H](CCCc1ccccc1)B(O)O)c1cnccn1` [Compound 23, ((R)-1-((R)-5-morpholino-5-oxo-2-(pyrazine-2-carboxamido)pentanamido)-4-phenylbutyl)boronic acid]: under 50 nM.
Next, `NC(=O)C[C@@H](NC(=O)c1cnccn1)C(=O)N[C@@H](CCCc1ccccc1)B(O)O` [Compound 10, ((R)-1-((R)-4-amino-4-oxo-2-(pyrazine-2-carboxamido)butanamido)-4-phenylbutyl)boronic acid]: under 50 nM.
The same measure for `CCC[C@@H](NC(=O)c1cnccn1)C(=O)N[C@@H](COCc1ccccc1)B(O)O` [Compound 39, ((R)-2-(benzyloxy)-1-((R)-2-(pyrazine-2-carboxamido)pentanamido)ethyl)boronic acid]: under 50 nM; for `COC[C@@H](NC(=O)c1cnccn1)C(=O)N[C@@H](COCc1ccccc1)B(O)O` [Compound 38, ((R)-2-(benzyloxy)-1-((R)-3-methoxy-2-(pyrazine-2-carboxamido)propanamido)ethyl)boronic acid]: under 50 nM.
The compound `CCNC(=O)C[C@@H](NC(=O)c1cnccn1)C(=O)N[C@@H](CCCc1ccccc1)B(O)O` [Compound 9, ((R)-1-((R)-4-(ethylamino)-4-oxo-2-(pyrazine-2-carboxamido)butanamido)-4-phenylbutyl)boronic acid] registered an IC50 of under 50 nM.
Next, `CCCC[C@H](NC(=O)[C@@H](CC(=O)N1CCOCC1)NC(=O)c1cnccn1)B(O)O` [Compound 6, ((R)-1-((R)-4-morpholino-4-oxo-2-(pyrazine-2-carboxamido)butanamido)pentyl)boronic acid]: under 50 nM; `COC[C@@H](NC(=O)c1ccccc1)C(=O)N[C@@H](CCCc1ccccc1)B(O)O` [Compound 48, ((R)-1-((R)-2-benzamido-3-methoxypropanamido)-4-phenylbutyl)boronic acid]: under 50 nM; `Cc1nc(C)c(C(=O)N[C@H](CC(=O)N2CCOCC2)C(=O)N[C@@H](CC(C)C)B(O)O)o1` [Compound 7, ((R)-1-((R)-2-(2,4-dimethyloxazole-5-carboxamido)-4-morpholino-4-oxobutanamido)-3-methylbutyl)boronic acid]: under 50 nM.
Next, `O=C(C[C@@H](NC(=O)c1cnccn1)C(=O)N[C@@H](CCCc1ccccc1)B(O)O)c1ccccc1` [Compound 3, ((1R)-1-(4-oxo-4-phenyl-2-(pyrazine-2-carboxamido)butanamido)-4-phenylbutyl)boronic acid]: under 50 nM; `CCC[C@H](C(=O)N(C)[C@@H](CCCc1ccccc1)B(O)O)N(C)C(=O)c1cnccn1` [Compound 52, ((R)-1-((R)—N-methyl-2-(N-methylpyrazine-2-carboxamido)pentanamido)-4-phenylbutyl)boronic acid]: 50 to 500 nM; `O=C(NC(CC(=O)N1CCOCC1)C(=O)N[C@@H](Cc1ccccc1)B(O)O)c1cnccn1` (stereo in doubt) [Compound 47, ((R)-1-((R)-4-morpholino-4-oxo-2-(pyrazine-2-carboxamido)butanamido)-2-phenylethyl)boronic acid]: over 5000 nM.
As to `O=C(N[C@H](CC(=O)N1CCOCC1)C(=O)NC(CCCc1ccccc1)B(O)O)C1CCOCC1` (stereo in doubt) [Compound 42, ((R)-1-((R)-4-morpholino-4-oxo-2-(tetrahydro-2H-pyran-4-carboxamido)butanamido)-4-phenylbutyl)boronic acid], the half-maximal inhibitory concentration (IC50) was under 50 nM.
The same measure for `CCC[C@H](C(=O)N[C@@H](CCCc1ccccc1)B(O)O)N(C)C(=O)c1cnccn1` [Compound 51, ((R)-1-((R)-2-(N-methylpyrazine-2-carboxamido)pentanamido)-4-phenylbutyl)boronic acid]: 50 to 500 nM.
Next, `O=C(N[C@H](CC(=O)N1CCOCC1)C(=O)N[C@@H](CCc1ccccc1)B(O)O)c1cnccn1` [Compound 5, ((R)-1-((R)-4-morpholino-4-oxo-2-(pyrazine-2-carboxamido)butanamido)-3-phenylpropyl)boronic acid]: under 50 nM; `O=C(N[C@@H](CCCc1ccccc1)B(O)O)[C@@H](CC(=O)N1CCOCC1)NC(=O)N1CCOCC1` [Compound 20, ((R)-1-((R)-2-(morpholine-4-carboxamido)-4-morpholino-4-oxobutanamido)-4-phenylbutyl)boronic acid]: under 50 nM.
The same measure for `O=C(N[C@H](CC(=O)N1CCOCC1)C(=O)NC(CCCc1ccccc1)B(O)O)C1CCCCC1` (stereo in doubt) [Compound 41, ((R)-1-((R)-2-(cyclohexanecarboxamido)-4-morpholino-4-oxobutanamido)-4-phenylbutyl)boronic acid]: under 50 nM; for `O=C(N[C@H](CC(=O)N1CCOCC1)C(=O)N[C@@H](CCCc1ccccc1)B(O)O)C1CCCCO1` (stereo partly drawn) [Compound 44, ((1R)-1-((2R)-4-morpholino-4-oxo-2-(tetrahydro-2H-pyran-2-carboxamido)butanamido)-4-phenylbutyl)boronic acid]: under 50 nM; for `CN(C)C(=O)C[C@@H](NC(=O)c1cnccn1)C(=O)N[C@@H](CCCc1ccccc1)B(O)O` [Compound 8, ((R)-1-((R)-4-(dimethylamino)-4-oxo-2-(pyrazine-2-carboxamido)butanamido)-4-phenylbutyl)boronic acid]: under 50 nM.
Regarding `O=C(N[C@@H](CCCc1ccccc1)B(O)O)[C@@H](CC(=O)N1CCOCC1)NS(=O)(=O)c1ccccc1` [Compound 43, ((R)-1-((R)-4-morpholino-4-oxo-2-(phenylsulfonamido)butanamido)-4-phenylbutyl)boronic acid], the IC50 is under 50 nM.
Next, `CS(=O)(=O)CC[C@@H](NC(=O)c1cnccn1)C(=O)N[C@@H](CCCc1ccccc1)B(O)O` [Compound 35, ((R)-1-((R)-4-(methylsulfonyl)-2-(pyrazine-2-carboxamido)butanamido)-4-phenylbutyl)boronic acid]: under 50 nM.
In turn, `CC(C)C[C@H](NC(=O)[C@@H](CC(=O)N1CCOCC1)NC(=O)c1cnccn1)B(O)O` [Compound 4, ((R)-3-methyl-1-((R)-4-morpholino-4-oxo-2-(pyrazine-2-carboxamido)butanamido)butyl)boronic acid] returned an IC50 of under 50 nM.
Regarding `COC[C@@H](NC(=O)c1cnccn1)C(=O)N[C@@H](CCCc1ccccc1)B(O)O` [Compound 37, ((R)-1-((R)-3-methoxy-2-(pyrazine-2-carboxamido)propanamido)-4-phenylbutyl)boronic acid], the IC50 is under 50 nM.
The same measure for `COC[C@@H](NC(=O)c1cccc(OC)n1)C(=O)N[C@@H](CCCc1ccccc1)B(O)O` [Compound 50, ((R)-1-((R)-3-methoxy-2-(6-methoxypicolinamido)propanamido)-4-phenylbutyl)boronic acid]: under 50 nM; for `CC(C)(C)OC(=O)N[C@H](CC(=O)N1CCOCC1)C(=O)N[C@@H](CCCc1ccccc1)B(O)O` [Compound 21, ((R)-1-((R)-2-((tert-butoxycarbonyl)amino)-4-morpholino-4-oxobutanamido)-4-phenylbutyl)boronic acid]: under 50 nM.
Next, `O=C(N[C@H](COc1ccccn1)C(=O)N[C@@H](CCCc1ccccc1)B(O)O)c1cnccn1` [Compound 29, ((R)-4-phenyl-1-((R)-2-(pyrazine-2-carboxamido)-3-(pyridin-2-yloxy)propanamido)butyl)boronic acid]: under 50 nM.
The same measure for `CC(=O)N[C@H](CC(=O)N1CCOCC1)C(=O)N[C@@H](CCCc1ccccc1)B(O)O` [Compound 19, ((R)-1-((R)-2-acetamido-4-morpholino-4-oxobutanamido)-4-phenylbutyl)boronic acid]: under 50 nM.
Regarding `CN(C)S(=O)(=O)C[C@@H](NC(=O)c1cnccn1)C(=O)N[C@@H](CCCc1ccccc1)B(O)O` [Compound 27, ((R)-1-((S)-3-(N,N-dimethylsulfamoyl)-2-(pyrazine-2-carboxamido)propanamido)-4-phenylbutyl)boronic acid], the IC50 is under 50 nM.
Next, `CN(C)C(=O)N[C@H](CC(=O)N1CCOCC1)C(=O)N[C@@H](CCCc1ccccc1)B(O)O` [Compound 33, ((R)-1-((R)-2-(3,3-dimethylureido)-4-morpholino-4-oxobutanamido)-4-phenylbutyl)boronic acid]: under 50 nM; `O=C(N[C@H](CC(=O)N1CCCCC1)C(=O)N[C@@H](CCCc1ccccc1)B(O)O)c1cnccn1` [Compound 11, ((R)-1-((R)-4-oxo-4-(piperidin-1-yl)-2-(pyrazine-2-carboxamido)butanamido)-4-phenylbutyl)boronic acid]: under 50 nM.
Take `CC[C@H](NC(=O)[C@@H](CC(=O)N1CCOCC1)NC(=O)c1cnccn1)B(O)O` [Compound 32, ((R)-1-((R)-4-morpholino-4-oxo-2-(pyrazine-2-carboxamido)butanamido)propyl)boronic acid]: the half-maximal inhibitory concentration (IC50) was under 50 nM.
Compound `CC(C)(C)NC(=O)N[C@H](CC(=O)N1CCOCC1)C(=O)N[C@@H](CCCc1ccccc1)B(O)O` [Compound 22, ((R)-1-((R)-2-(3-(tert-butyl)ureido)-4-morpholino-4-oxobutanamido)-4-phenylbutyl)boronic acid] showed an IC50 of 50 to 500 nM.
